Assays:
[1] = tested on: Shrimp (L. vannamei) larvae; assay: Acute toxicity assay in shrimp larvae; type: in vivo, Litopenaeus vannamei; conditions: after 72 h of exposure
Procedure: Shrimp (L. vannamei) larvae (total length: 0.5 ± 0.04 cm, body weight: 4.2 ± 0.4 mg, mean ± SD) were provided by Zhejiang Mariculture Research Institute Qingjiang Station (Wenzhou, China). The larvae were maintained in a culture pond at 28 °C, fed four times a day with commercial feed pellets, and collected randomly for PCR testing to verify the WSSV-free status prior to the trial.
Acute toxicity of the coumarin derivatives was investigated by exposing larvae to a range of compound concentrations, from 0.1 mg/L to 100 mg/L of coumarin derivatives, where the dose setting was based on the data from preliminary tests in our laboratory. A DMSO-control (2%, v/v, the highest percentage of DMSO in treatments) served as the control. During the experiment, every 20 larvae were moved into six-well plates filled with 6 mL/per well freshly prepared test solutions for a 72-h incubation at 28 °C with a natural photoperiod. […] To avoid deterioration of water quality, dead shrimps were immediately removed at the point of observation. Three replicate experiments were performed.
Compound response curves were represented by a logistic sigmoidal function with a maximal effect level (Amax) and Hill coefficient representing the sigmoidal transition (Origin 8.1; http://www.originlab.com, accessed on 25 March 2021). Statistical analyses were performed using SPSS (version 18.0) statistical software (SPSS Inc., Chicago, IL, USA). The LC50 and EC50 values with 95% CIs were calculated using probit analysis. Virus titers were log10-transformed prior to statistical analyses. Unpaired Student’s t-tests were used to compare coumarin-treated samples and negative-control DMSO samples for determining significance and data are presented as mean values ± SD.

[2] = tested on: white spot syndrome virus (WSSV); assay: Anti-WSSV activity in shrimp larvae, co-incubation, copy number of viral genome by RT-qPCR; type: in vivo, Litopenaeus vannamei
[3] = Solubility / precipitation in aquacultural water; type: physicochemical
Procedure: Prior to evaluation of the anti-WSSV activity of coumarins, the safety doses for larvae needed to be determined. […] In contrast, the electron-withdrawing group was more toxic than the electron-donating group, with the LC50 of A5‒A8 being <5 mg/L at 72 h. […] Based on preliminary analysis of the structure-activity relationship (SAR) of similar spatial structures with different substituents of electron-donating and electron-withdrawing groups to coumarins A1, B1, and C1, we considered that […] of compounds; this provides a basis for further research.
All conventional reagents and solvents are purchased directly from commercial companies and no further purification is required. Organic solvents were purchased from Sinopharm chemical reagent Co., Ltd. and purified by distillation and moisture was excluded from the glass apparatus using CaCl2 drying tubes. Throughout this study, silica gel H (200–300 mesh; Qingdao Marine Chemical Factory, Qingdao, China) was used for the column chromatography. For thin layer chromatographic (TLC) plates, Silica gel (GF254) (Qingdao Marine Chemical Factory, Qingdao, China) were used for thin layer chromatographic (TLC) analysis, and all of the spots and bands were detected by UV irradiation (254, 365 nm). The intermediates and products were characterized by electrospray ionization mass spectrometry (TripleTOF5600þ; AB SCIEX Pte. Ltd., Boston, MA, USA), ^1H NMR and ^13C NMR (Bruker AM500 spectrometer; Bruker Corporation, Berne, Switzerland). The derivatives were dissolved in 100% dimethyl sulfoxide (DMSO; Beyotime Biotechnology, Haimen, China), stored at 4 °C prior to antiviral evaluation, and used within 6 months. For solubility, the stock solutions, at a concentration of 50 mg/mL, were sonicated for approximately 10 min to ensure that the derivatives were fully dissolved and mixed.

[4] = tested on: white spot syndrome virus (WSSV); conditions: buffer; cited from earlier work
[5] = test range 0.4~100 mg/L, aquacultural water, LC50 NONE

N#CC1=C(N)Oc2c(c(=O)oc3ccccc23)C1c1ccc([N+](=O)[O-])cc1 (centres unmarked) [C8]
signs of toxicity at the saturation concentration [1]: No signs of toxicity were observed
EC50 ([2]; Whispovirus xiabaidian, 72 h, read-out: EC50 (mg/L; 95% CI), median effective concentration, WSSV-infected larvae, copy number of viral genome, 72 h, 95% CI in brackets): 6.6 mg/L
inhibitory efficiency on WSSV replication ([2]; six-point dose-response, viral genome copy number in larvae): exceeded 90%
solubility in aquacultural water [3]: insoluble
lowest precipitation concentration [3, 5]: NONE (16) mg/L
lowest precipitation concentration (bracketed value in LC50 48 h column) [3, 5]: NONE (16) mg/L
lowest precipitation concentration (bracketed value in LC50 72 h column) [3, 5]: NONE (16) mg/L
half-life in aquacultural and sterilized deionized water [4]: 24 to 48 h

Source: article PMC8036603, “Small Molecule Inhibitors of White Spot Syndrome Virus: Promise in Shrimp Seedling Culture” (International Journal of Molecular Sciences, 2021)
